Data: paper PMC4552634, “A New Set of Chemical Starting Points with Plasmodium falciparum Transmission-Blocking Potential for Antimalarial Drug Discovery” (PLoS ONE, 2015)
Read-outs that look alike come from different tables or passages of the source.

What was measured:
[1] = test system: mature P. falciparum NF54 gametocytes (male gametocyte exflagellation); test: Exflagellation assay; format: cell-based, Plasmodium falciparum; details: for % Exflagellation inh. at the IC90: 48 h, concentration = IC90, Fig 7; for % Inhibition exflagellation: 48 h post-treatment at the IC90 of the ATP assay, normalized to control, Fig 6
Method: The exflagellation assay was performed as described by Delves et al., with some modifications. Briefly, 200 μL samples of mature P. falciparum NF54 gametocytes culture in the presence of the corresponding test compound were incubated at 37°C for 48 h in an atmosphere of 5% CO2, 5% O2, 90% N2 in 1.5 mL microfuge tubes. After the incubation period, cells were settled down and medium was carefully removed. The cell pellets were resuspended in 15 μl of complete ookinete medium (RPMI medium with 25 mM HEPES, 50 mg/L hypoxanthine, 2 g/L sodium bicarbonate, 100 μM xanthurenic acid, 20% human serum) pre-warmed at 37°C. Once parasites were resuspended in ookinete medium, they were introduced in a chamber of a FastRead disposable hemocytometer slide and placed on a horizontal surface at room temperature (21°C), to allow cells to homogeneously settle, forming a tight monolayer.

[2] = test system: P. falciparum NF54 gametocytes fed to An. stephensi mosquitoes; test: Standard membrane feeding assay (SMFA); format: in vivo, Plasmodium falciparum; details: for Infection Prevalence (%): An. stephensi fed gametocytes treated 48 h at the IC90, Fig 6, one of two independent experiments, control 94%; for % Prevalence of infection / % Reduction oocysts SMFA / Block in Transmission (%) / Reduction in Oocyst (%): gametocytes treated 48 h at the IC90; for % Prevalence of infection / % Reduction oocysts SMFA: Fig 7; for Block in Transmission (%) / Reduction in Oocyst (%): normalized to DMSO control, Fig 6; for Reduction in Oocyst (%): mean oocyst intensity
Method: Gametocyte cultures of the P. falciparum NF54 strain, kindly provided by Robert Sinden (Imperial College London), were induced at 0.5% asexual parasitemia and 4% hematocrit (RBCs from the Spanish Red Cross) at 40 mL final volume in T75 flasks. Gametocyte production media comprised RPMI 1640 (Sigma, #R5886), 30 mM bicarbonate (Sigma-Aldrich, #S5761) and 5 mM hypoxanthine (Gibco, #11067–030). Media were made complete with 5% human serum A^+ (Interstate Blood Bank, USA) and 5% AlbuMAX II (Gibco, #11021–037). Cultures were maintained in a gassed incubator at 37°C with 5% CO2, 5% O2, 90% N2 for 14–17 days post-induction, with daily medium replacement without the addition of fresh RBCs. Percentages of mature gametocytes were assessed by microscopic counts (Leica, DM2000) of Giemsa-stained thin blood smears, and functional microgametocytes were assessed for exflagellation activity at room temperature. To test exflagellation, mature gametocyte cultures were centrifuged at 1800 rpm for one minute. The infected RBC pellet was gently mixed with an equal volume of pre-warmed human serum and introduced onto a slide with a coverslip, followed by incubation at room temperature for 10–15 min. The average exflagellation centers per field at 10X magnification was determined by the exflagellation assay described above. Gametocyte counts and exflagellation assays were performed both before and after gametocyte drug treatment (at the time of SMFA).
Two days before gametocyte treatment with compound, spent media was removed and fresh Gametocyte Treatment Medium consisting of RPMI1640 with L-glutamine and 25 mM HEPES (Gibco, #13018–031), 10 mM glucose (Sigma-Aldrich, #G8270), 20 mM bicarbonate (Sigma-Aldrich, #S5761) and 5 mM hypoxanthine (Gibco, #11067) was added. Media were made complete with 10% of human A^+ serum (Interstate Blood Bank). Five ml of mature gametocyte culture at day 15 post-induction was transferred into each well of a pre-warmed 6-well plate. The selected TCAMS compounds were prepared fresh as a stock solution of 10 mM in 100% of DMSO and added to the mature gametocytes at the concentrations described in Fig 7. Gametocytes were exposed to the compound for a total duration of 48 h. At 24 h post-drug exposure, a fixed volume (3 mL) of spent medium was removed and fresh medium was re-added, accompanied by compound replenishment to obtain the required final concentration. Untreated gametocytes with the same final concentration of DMSO (0.1%) as in treated gametocytes were processed in parallel.
On the day of the feed, cultures were centrifuged at 2500 g for 3 min at 37°C, diluted 1:1 with 100% packed cell volume of fresh RBCs, and finally formulated as artificial mosquito blood meals at 50% hematocrit with pre-warmed human serum. All steps were performed at 37°C. Prepared blood meals were fed in duplicate to 4–6 days old female An. stephensi mosquitoes for 30–40 min via Parafilm membrane attached to glass feeders (Fisher Scientific, #12831283) connected to a 37°C circulating water bath. Fed mosquitoes were maintained in an incubator at 27°C and 75% relative humidity with 12 h light/dark cycles. At 7–8 days post-feeding, mosquitoes with fully developed ovaries were dissected for midguts (Leica, M80) and incubated in 0.2% mercurochrome solution in distilled water for 10–15 min. The total number of oocysts in individual midguts was counted using a light microscope (Leica, DM2000) under a 10X objective (100X magnification). Both infection prevalence (percentage of mosquitoes with one or more oocysts) and mean oocyst intensity of infection were defined in each treatment. The percentage block in transmission and the percentage reduction in mean oocyst intensity were calculated after normalizing to the Control DMSO-treated sample.

[3] = test system: P. falciparum asexual stages; details: cited from earlier work
[4] = test system: P. falciparum stage V gametocytes; test: Gametocytocidal ATP bioluminescence assay (single point 5 μM and 1 μM, dose-response); format: cell-based, Plasmodium falciparum; details: for Ratio IC50 HepG2/IC50 P. falciparum: IC50 HepG2 divided by IC50 P. falciparum gametocytes; for IC90: ATP assay, Fig 7, read-out: IC90 against gametocytes
Method: Purified stage IV-V gametocytes were obtained as previously described [10]. Single point ATP bioluminescence assay and dose–response of positive hits was determined in accordance with the previously published protocol [10].

[5] = test system: luciferase reaction (BacTiter-Glo); test: Interference assay (inhibition of the BacTiter-Glo luciferase reaction); format: biochemical; parameters: concentration or dose not given beside the values; details: ATP interference assay
Method: To discard possible false-positive results, we performed an interference assay in parallel. […] […]. The ATP solution was made by dissolving ATP powder (ATP standard from the ATPlite 1 step assay kit, reference 6016731, Perkin Elmer) in culture medium. The positive control used was the Luciferase Inhibitor I Calbiochem (Merck, 119113) at 100 μM.

[6] = Cytotoxicity in HepG2 cells (intracellular ATP, ATPlite, 48 h); format: cell-based, human; details: human, HepG2 cells
Method: (§1) Cells were grown and maintained in EMEM (Sigma-Aldrich) supplemented with 2mM L-glutamine (Sigma-Aldrich) and 10% fetal calf serum (Perbio). […] Passages were routinely made upon reaching 80–90% confluence. For cytotoxicity experiments, cells were seeded onto 96-well clear bottom black plates coated with type I collagen (Biocoat, Becton Dickinson) at a cell density of 20,000 cells/well.
(§2) To determine cytotoxic effects, represented by the Tox50 value (the concentration of drug that reduces cell viability by 50%), cells were exposed to serial dilutions of compounds for 48 h at 37°C. The assay medium was as previously described, but supplemented with 5% fetal calf serum instead of 10%. […] In the presence of ATP, luminescence is emitted as the reaction described earlier for the BacTiter-Glo kit. Percentages of inhibition were calculated relative to vehicle control wells.

[7] = test system: HepG2 cells; test: as above; format: cell-based, human; details: for Ratio IC50 HepG2/IC50 P. falciparum: IC50 HepG2 divided by IC50 P. falciparum gametocytes
Method: as §1, §2

[8] = test system: P. falciparum stage V gametocytes; test: microbe, parasite or virus in culture; parameters: BacTiter-Glo ATP luminescence viability of stage V gametocytes, 11-point dose-response IC50; details: Plasmodium falciparum, 48 h; sheet CSAanalogstable
Method: Once purified, gametocytes were counted using a Neubauer chamber, and the density was adjusted to 2.5 x 10^5 gametocytes/mL. Fifty μL of the gametocyte suspension (1.25 x 10^4 gametocytes) were added to each well of the 384-well plate containing the compounds, using a Multidrop combi (Thermo Electron Corporation). Plates were shaken for 5 sec to homogenize and then incubated at 37°C for 48 h in an atmosphere of 5% CO2, 5% O2, 90% N2. The ATP level of each well was determined using the BacTiter-Glo reagent (Promega) according to the recommendations of the manufacturer. The BacTiter-Glo assay generates a ‘glow-type’ luminescent signal produced by the luciferase reaction, which consists of mono-oxygenation of luciferin catalyzed by luciferase in the presence of Mg^2+, ATP and molecular oxygen. The luminescence was measured using a plate reader (Victor V, Perkin Elmer). […] The background value was subtracted from every other value of the assay prior to further calculation. The average of 16 replicates of vehicle control (0.5% or 0.1% DMSO) represents 100% of signal. Related to this value, each test concentration was calculated as percentage of control. […] However, there was no significant correlation between compound IC50 values obtained against gametocytes and the inhibition of growth of P. falciparum asexual forms as previously determined for TCAMS [6] […]

[9] = test system: P. falciparum stage V gametocytes; parameters: BacTiter-Glo ATP luminescence viability of purified stage V gametocytes in 384-well plates, per cent inhibition versus DMSO; details: 48 h, 5 µM; inhibitor
[10] = test system: KCa2.2, a calcium-dependent K+ channel; parameters: method as in TCAMS annotation; details: target annotation in TCAMS; ref TCAMS annotation; cited from earlier work
[11] = P. falciparum asexual stages, TCAMS data, read-out: IC50 (µM) Pf asexual stages
[12] = asexual stages, TCAMS data, read-out: IC50 asexual
[13] = Plasmodium falciparum, P. falciparum gametocytes, average, read-out: IC50 Pf Gametocytes average, IC50 (µM) average
[14] = Plasmodium falciparum, sexual stages (gametocytes), dose-response, read-out: IC50 sexual
[15] = HepG2, 48 h exposure, intracellular ATP, read-out: IC50 (μM) Cytotoxicity HepG2
[16] = IC50 per ratio column head, unit inferred, read-out: Cytotoxicity in HepG2

SMILES	% Exflagellation inh. at the IC90 [1] [%]	Infection Prevalence (%) [2] [%]	% Prevalence of infection [2] [%]	% Reduction oocysts SMFA [2] [%]	Block in Transmission (%) [2] [%]	Reduction in Oocyst (%) [2] [%]	IC50 [3, 11] [µM]	IC50 [3, 12] [µM]	Ratio IC50 HepG2/IC50 P. falciparum [4]	IC90 ([4]; Plasmodium falciparum) [µM]	IC50 [4, 13] [µM]	IC50 [4, 14] [µM]	% Control luminiscence [5] [%]	IC50 at 48 h [6, 15] [µM]	IC50 at 48 h [6, 16] [µM]	Ratio IC50 HepG2/IC50 P. falciparum [7]	further results
N=C(NCCCc1ccccc1)c1cccc(C(=N)NCCCc2ccccc2)n1 [TCMDC-137453]	97.3	5	5	100	95	100	1.38	1.38	41	2	0.31	0.313	100	13	12.8	41	
CC(C)c1ccc(NC(=S)NN=Cc2ccccn2)cc1 [TCMDC-125520]							0.72	0.724	>1306		< 0.0098			13	12.8	>1306	IC50 [8]: 0.0098 µM
Cc1[nH]c2ccccc2c1C(=O)C(C)Sc1nnc(-c2ccccc2Br)[nH]1 (stereo not drawn) [TCMDC-125114]	97	2	2	100	98	100	0.0348	0.035	74	2.5	0.67		99	> 25	49.3	74	% Inhibition exflagellation [1]: 97.00%; IC50 ([3]; as previously determined for TCAMS, read-out: IC50 (μM) Pf Asexual stages): 0.03 µM
CCC1=C(C[C@H]2NCCc3cc(OC)c(OC)cc32)C[C@H]2c3cc(OC)c(OC)cc3CCN2C1 [TCMDC-131825]							0.31	0.312	>83							>83	IC50 ([4]; P. falciparum gametocytes, average, read-out: IC50 Pf Gametocytes average, IC50 (µM) average): 0.3 µM; IC50 [8]: 0.3 µM; IC50 ([7]; HepG2 cells, IC50 per ratio column head, unit inferred): > 25 µM
COc1cccc(NC(=O)[C@H](C(C)C)n2c(=O)[nH]c3ccccc3c2=O)c1 [TCMDC-125133]	88	3	3	100	97	100	0.27	0.266	>93	2.5	0.54	0.538	100	> 25	> 50	>93	% Inhibition exflagellation [1]: 88.00%
NC(=O)c1ccccc1Nc1nc(Nc2ccn[nH]2)ncc1Cl [TCMDC-134169]																	% Inhibition [9]: -47.65%
Clc1ccc(Nc2nc(-c3ccccn3)cs2)nc1 [TCMDC-123885]							0.77	0.774			0.67		100				reported as inhibitors of KCa2.2 [10]: inhibitors
Cc1ccnc(Nc2nc(-c3ccccn3)cs2)c1 [TCMDC-125769]							1	0.998			0.0433	0.043					reported as inhibitors of KCa2.2 [10]: inhibitors; IC50 ([4]; Plasmodium falciparum, gametocytes (GC), value as repeated in the Clusters sheet, read-out: IC50 GC): 0.04 µM
Cc1ccccc1N1CCN(c2ccc(C(=O)NC3CC3)cn2)CC1 [TCMDC-134578]																	% Inhibition [9]: 39.4%
